Where “and” joins values, the source holds several entries; their conditions need not be identical. Equal entries are not always repeated.
Molecular target: T1, h-NAAA (Homo sapiens, UniProt Q02083)
T1 construct: made in house; host or cells: HEK-293 cells stably overexpressing human NAAA; enzyme-enriched (lysosomal) lysate
T1 sequence (Q02083 29-125 limits assumed): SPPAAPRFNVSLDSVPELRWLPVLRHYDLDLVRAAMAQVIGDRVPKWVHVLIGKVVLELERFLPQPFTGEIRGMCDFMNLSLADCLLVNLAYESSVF
T1 sequence (Q02083 126-359 limits assumed): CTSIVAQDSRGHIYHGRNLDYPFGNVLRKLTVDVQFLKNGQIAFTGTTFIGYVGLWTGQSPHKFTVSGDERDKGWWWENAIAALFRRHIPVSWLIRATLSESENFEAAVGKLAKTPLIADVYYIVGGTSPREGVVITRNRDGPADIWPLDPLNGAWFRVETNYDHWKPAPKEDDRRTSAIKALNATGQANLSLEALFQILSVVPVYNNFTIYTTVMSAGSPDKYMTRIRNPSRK
Assay: Fluorogenic human-NAAA assay (h-NAAA, fluo.)
Assay type: biochemical
Conditions: for IC50 / h-NAAA inhibitory activity, in words / pIC50: h-NAAA (fluo.); for IC50: mean ± SD (n ≥ 3), n.a.: not active @50 μM (<10% inhibition); for LipE: LipE = pIC50 – c Log P (h-NAAA); for pIC50: Table S1
Procedure: Human recombinant proteins were obtained from HEK-293 stable overexpressing human NAAA, AC, and FAAH-1 cell lines, respectively. Cells were grown in Dulbecco’s modified Eagle medium (DMEM) containing 10% FBS, 1% glutamine, 1 mM sodium pyruvate, and 500 μg/mL geneticin (G418). To obtain a high-density cell proliferation, h-NAAA-HEK-293 cells were grown in BelloCell-500 bottle, a compact bioreactor. On the contrary, h-AC and h-FAAH-1-HEK-293 cells were grown in 150 mm dishes and scraped off with cold PBS 1× pH 7.4 at 80% confluence. Cell pellets were collected and stored at −80 °C until protein preparation.
HEK-293 cells stably transfected with the human NAAA or human AC coding sequences were used as the enzyme source. Cells were suspended in 20 mM Tris-HCl (pH 7.4) with 0.32 M sucrose, sonicated, and centrifuged at 800g for 30 min at 4 °C. Supernatants were then centrifuged at 12,000g for 30 min at 4 °C. Pellets were resuspended in PBS buffer (pH 7.4) and subjected to three freeze-thaw cycles at −80 °C. The suspension was finally centrifuged at 105,000g for 1 h at 4 °C, supernatants were collected, protein concentration was measured, and samples were aliquoted and stored at −80 °C until use.
The assay was run in 96-well microplates (Black OptiPlate-96 F; PerkinElmer, Massachusetts, USA), in a total reaction volume of 200 μL. h-NAAA protein preparation (4 μg) was preincubated for 30 min with various concentrations of test compounds or vehicle control (DMSO 5%) in 100 mM citrate/phosphate buffer (pH 4.5) containing 3.0 mM DTT, 0.1% NP40, 0.05% BSA, and 150 mM NaCl. The background (no activity) samples were prepared using assay buffer without h-NAAA and DMSO (5%). N-(4-methyl-2-oxo-chromen-7-yl)-hexadecanamide (PAMCA)[60] was used as a substrate (2 μM) and the reaction was carried out for 50 min at 37 °C. Fluorescence was measured with EnVision 2014 Multilabel Reader (PerkinElmer, Massachusetts, USA) using an excitation wavelength of 355 nm and an emission of 460 nm. IC50 values were calculated by non-linear regression analysis of log[concentration]/response curves generated with mean replicate values using a four-parameter Hill equation curve fitting with GraphPad Prism 5 (GraphPad Software Inc., CA, USA).

Row | Compound | IC50 | further results
1 | CCc1ccc(O[C@H]2C[C@H]3CC[C@@H](C2)N3S(=O)(=O)c2c(C)n[nH]c2C)cc1 [Compound 37, (1R,3r,5S)-8-((3,5-Dimethyl-1H-pyrazol-4-yl)sulfonyl)-3-(4-ethylphenoxy)-8-azabicyclo[3.2.1]octane] | 51 ± 5 nM | –
2 | Cc1n[nH]c(C)c1S(=O)(=O)N1[C@@H]2CC[C@H]1C[C@@H](Oc1ccc(C#N)cc1)C2 [Compound 45] | 757 ± 80 nM | –
3 | Cc1[nH]nc(C(C)(C)C)c1S(=O)(=O)N1CCC(Oc2cnccn2)CC1 [Compound 12, 2-((1-((3-(tert-Butyl)-5-methyl-1H-pyrazol-4-yl)sulfonyl)piperidin-4-yl)oxy)pyrazine] | 780 ± 120 nM | –
4 | Cc1n[nH]c(C)c1S(=O)(=O)N1[C@@H]2CC[C@H]1C[C@@H](Oc1ccc(C(F)(F)F)cc1)C2 [Compound 43, (1R,3r,5S)-8-((3,5-Dimethyl-1H-pyrazol-4-yl)sulfonyl)-3-(4-(trifluoromethyl)phenoxy)-8-azabicyclo[3.2.1]octane] | 212 ± 20 nM | –
5 | Cc1n[nH]cc1S(=O)(=O)N1CCC(Oc2cnccn2)CC1 [Compound 2, 2-((1-((3-Methyl-1H-pyrazol-4-yl)sulfonyl)piperidin-4-yl)oxy)pyrazine] | – | h-NAAA inhibitory activity, in words: devoid of any activity
6 | CCOCc1ccc(O[C@H]2C[C@H]3CC[C@@H](C2)N3S(=O)(=O)c2c(C)n[nH]c2C)cc1 [Compound 48, (1R,3r,5S)-8-((3,5-Dimethyl-1H-pyrazol-4-yl)sulfonyl)-3-(4-(ethoxymethyl)phenoxy)-8-azabicyclo[3.2.1]octane] | 16 ± 2 nM | LipE: 5.70; pIC50: 7.79
7 | Cc1n[nH]c(C)c1S(=O)(=O)N1C[C@H]2CCC[C@@H](C1)[C@@H]2Oc1cnccn1 [Compound 29, (1R,5S,9s)-3-((3,5-Dimethyl-1H-pyrazol-4-yl)sulfonyl)-9-(pyrazin-2-yloxy)-3-azabicyclo[3.3.1]nonane] | 690 ± 60 nM | –
8 | COc1ccc(O[C@H]2C[C@H]3CC[C@@H](C2)N3S(=O)(=O)c2c(C)n[nH]c2C)cc1 [Compound 44, (1R,3r,5S)-8-((3,5-Dimethyl-1H-pyrazol-4-yl)sulfonyl)-3-(4-methoxyphenoxy)-8-azabicyclo[3.2.1]octane] | 175 ± 15 nM | –
9 | Cc1n[nH]c(C)c1S(=O)(=O)N1[C@@H]2CC[C@H]1C[C@@H](Oc1cnccn1)C2 [Compound 20, (1R,3r,5S)-8-((3,5-Dimethyl-1H-pyrazol-4-yl)sulfonyl)-3-(pyrazin-2-yloxy)-8-azabicyclo[3.2.1]octane] | 230 ± 10 nM | –
10 | Cc1n[nH]c(C)c1S(=O)(=O)N1C[C@H]2CC[C@@H](C1)[C@H]2Oc1cnccn1 [Compound 27, (1R,5S,8r)-3-((3,5-Dimethyl-1H-pyrazol-4-yl)sulfonyl)-8-(pyrazin-2-yloxy)-3-azabicyclo[3.2.1]octane] | 15400 ± 3260 nM | –
11 | Cc1n[nH]c(C)c1S(=O)(=O)N1[C@@H]2COC[C@H]1C[C@@H](Oc1cnccn1)C2 [Compound 26, (1R,5S,7s)-9-((3,5-Dimethyl-1H-pyrazol-4-yl)sulfonyl)-7-(pyrazin-2-yloxy)-3-oxa-9-azabicyclo[3.3.1]nonane] | 2330 ± 830 nM | –
12 | Cc1cccc(OC2CC3CCC(C2)N3S(=O)(=O)c2c(C)n[nH]c2C)c1 [Compound 35, (1R,3r,5S)-8-((3,5-Dimethyl-1H-pyrazol-4-yl)sulfonyl)-3-(m-tolyloxy)-8-azabicyclo[3.2.1]octane] | 614 ± 140 nM | –
13 | Cc1n[nH]c(C)c1S(=O)(=O)N1CCC(Nc2cnccn2)CC1 [Compound 22, N-(1-((3,5-Dimethyl-1H-pyrazol-4-yl)sulfonyl)piperidin-4-yl)pyrazin-2-amine] | – | h-NAAA inhibitory activity, in words: abolished the inhibitory activity
14 | Cc1n[nH]c(C)c1S(=O)(=O)N1[C@@H]2CCC[C@H]1C[C@@H](Oc1cnccn1)C2 [Compound 25, (1R,3r,5S)-9-((3,5-Dimethyl-1H-pyrazol-4-yl)sulfonyl)-3-(pyrazin-2-yloxy)-9-azabicyclo[3.3.1]nonane] | 370 ± 30 nM | –
15 | Cc1[nH]nc(C(C)C)c1S(=O)(=O)N1CCC(Oc2cnccn2)CC1 [Compound 11, 2-((1-((3-isoPropyl-5-methyl-1H-pyrazol-4-yl)sulfonyl)piperidin-4-yl)oxy)pyrazine] | 640 ± 140 nM | –
16 | Cc1[nH]nc(C(F)(F)F)c1S(=O)(=O)N1CCC(Oc2cnccn2)CC1 [Compound 14, 2-((1-((5-Methyl-3-(trifluoromethyl)-1H-pyrazol-4-yl)sulfonyl)piperidin-4-yl)oxy)pyrazine] | 3290 ± 230 nM | –
17 | COc1n[nH]c(C)c1S(=O)(=O)N1CCC(Oc2cnccn2)CC1 [Compound 13, 2-((1-((3-Methoxy-5-methyl-1H-pyrazol-4-yl)sulfonyl)piperidin-4-yl)oxy)pyrazine] | – | h-NAAA inhibitory activity, in words: no detectable activity
18 | Cc1nn(C)c(C)c1S(=O)(=O)N1CCC(Oc2cnccn2)CC1 [Compound 4, 2-((1-((1,3,5-Trimethyl-1H-pyrazol-4-yl)sulfonyl)piperidin-4-yl)oxy)pyrazine] | – | h-NAAA inhibitory activity, in words: complete loss of inhibitory effect
19 | CCc1n[nH]c(CC)c1S(=O)(=O)N1CCC(Oc2cnccn2)CC1 [Compound 15, 2-((1-((3,5-Diethyl-1H-pyrazol-4-yl)sulfonyl)piperidin-4-yl)oxy)pyrazine] | 1110 ± 310 nM | –
20 | Cc1n[nH]c(C)c1S(=O)(=O)N1[C@@H]2CC[C@H]1C[C@@H](Oc1ccccn1)C2 [Compound 30, (1R,3r,5S)-8-((3,5-Dimethyl-1H-pyrazol-4-yl)sulfonyl)-3-(pyridin-2-yloxy)-8-azabicyclo[3.2.1]octane] | 160 nM and 162 nM | –
21 | Cc1ccc(O[C@H]2C[C@H]3CC[C@@H](C2)N3S(=O)(=O)c2c(C)n[nH]c2C)cc1 [Compound 33, (1R,3r,5S)-8-((3,5-Dimethyl-1H-pyrazol-4-yl)sulfonyl)-3-(p-tolyloxy)-8-azabicyclo[3.2.1]octane] | 36 ± 4 nM | –
22 | Cc1n[nH]c(C)c1S(=O)(=O)N1CCC(Oc2cnccn2)CC1 [Compound 1, 2-((1-((3,5-Dimethyl-1H-pyrazol-4-yl)sulfonyl)piperidin-4-yl)oxy)pyrazine] | 1090 ± 163 nM | LipE: 6.3; pIC50: 5.96
23 | Cc1cccc(C)c1S(=O)(=O)N1CCC(Oc2cnccn2)CC1 [Compound 7, 2-((1-((2,6-Dimethylphenyl)sulfonyl)piperidin-4-yl)oxy)pyrazine] | 4480 ± 940 nM | –
24 | CCCOc1ccc(O[C@H]2C[C@H]3CC[C@@H](C2)N3S(=O)(=O)c2c(C)n[nH]c2C)cc1 [Compound 47, (1R,3r,5S)-8-((3,5-Dimethyl-1H-pyrazol-4-yl)sulfonyl)-3-(4-propoxyphenoxy)-8-azabicyclo[3.2.1]octane] | 450 ± 70 nM | LipE: 3.55; pIC50: 6.35
25 | Cc1n[nH]c(C)c1S(=O)(=O)N1CCC(Cc2cnccn2)CC1 [Compound 23, 2-((1-((3,5-Dimethyl-1H-pyrazol-4-yl)sulfonyl)piperidin-4-yl)methyl)pyrazine] | – | h-NAAA inhibitory activity, in words: abolished the inhibitory activity
26 | Cc1n[nH]c(C)c1S(=O)(=O)N1CC(Oc2cnccn2)C1 [Compound 18, 2-((1-((3,5-Dimethyl-1H-pyrazol-4-yl)sulfonyl)azetidin-3-yl)oxy)pyrazine] | – | h-NAAA inhibitory activity, in words: complete loss of enzyme inhibition
27 | Cc1n[nH]c(C)c1S(=O)(=O)N1CCC(c2cnccn2)CC1 [Compound 24, 2-(1-((3,5-Dimethyl-1H-pyrazol-4-yl)sulfonyl)piperidin-4-yl)pyrazine] | – | h-NAAA inhibitory activity, in words: abolished the inhibitory activity
28 | Cc1n[nH]c(C)c1S(=O)(=O)N1[C@@H]2CC[C@H]1C[C@@H](Oc1ccc(F)cc1)C2 [Compound 46, (1R,3r,5S)-8-((3,5-Dimethyl-1H-pyrazol-4-yl)sulfonyl)-3-(4-fluorophenoxy)-8-azabicyclo[3.2.1]octane] | 143 ± 7 nM | –
29 | Cc1cnn(C)c1S(=O)(=O)N1CCC(Oc2cnccn2)CC1 [Compound 6, 2-((1-((1,4-Dimethyl-1H-pyrazol-5-yl)sulfonyl)piperidin-4-yl)oxy)pyrazine] | – | h-NAAA inhibitory activity, in words: complete loss of inhibitory effect
